Measured values from patent US20180332847A1, “ANTIMICROBIAL METAL CARBOXYLATE-BENZISOTHIAZOLINONE MIXTURES” (Troy Corporation, priority 2017, published 2018).
Where “and” joins values, the source holds several entries; their conditions need not be identical. Equal entries are not always repeated.

Columns and labels:
Format in all cases: cell-based
Alternaria alternata = test: Minimum Inhibitory Concentration (MIC) by spiral plater / spiral gradient endpoint against Alternaria alternata
Protocol: (§1) Synergistic Index=Qa/QA+Qb/QB [Equation No. 1] • where Qa=the quantity of component A used in a binary mixture that gives the desired effect • QA=the quantity of component A which when used alone gives the desired effect • Qb=the quantity of component B used in a binary mixture that gives the desired effect • QB=the quantity of component B which when used alone gives the desired effect
(§2) Minimum Inhibitory Concentration (“MIC”) for each of the antimicrobial compositions was determined against a test microbe, which in this case was a spore suspension of the fungus Alternaria alternata, with the aid of an Autoplate 4000 spiral plater that is commercially available from Spiral Biotech, Inc., Norwood, Mass., and its accompanying spiral gradient endpoint software (hereinafter referred to as “the SGE software”). The spiral plater automates the normal serial dilution method for determining MICs. Although the details of the SGE software are held confidentially by Spiral Biotech, Inc., they are believed to consistent with the principles set forth in “Measurement of MICs of antibacterial agents by spiral gradient endpoint compared with conventional dilution method” J. H. Paton, H. A. Holt, and M. J. Bywater—Int. J. Exp. Clin. Chemother, 1990.
Spore suspensions for the test microbe were prepared by growing Alternaria alternata on a Difco malt agar slant in an incubator for 1 week at 28° C. Spores were loosened by adding a small amount of buffer solution at pH 7.0 and scraping with a sterile nichrome wire loop. This process was repeated twice. The buffer solution included phosphate buffer and magnesium chloride, and was obtained commercially from Thomas Scientific Company, as Lot #023-0703.
Loosened spores were removed from the slant by aseptically pouring them into a sterile bottle containing 30 ml of the buffer solution and a volume of approximately 40 ml of 6 mm diameter borosilicate glass beads. The bead bottle was shaken to disperse the spores and adjusted to a final liquid volume of 50 ml. For use as a test inoculum, spore density was adjusted in distilled water blanks to that of a 0.5 McFarland nephelometer standard.
(§3) The spiral plater automatically applied 54.3 micro-liters of each antimicrobial composition of interest to the surface of 150 millimeter malt agar plates using an exponential application gradient. The concentration of the antimicrobial concentration was greatest near the center of the Petri plates and decreased toward the edges. Antimicrobial composition gradients were allowed to air dry at room temperature for 1 to 4 hours at 23° C. before inoculation with test microbe. Spiral gradient plates were inoculated by streaking with cotton swabs that had been soaked in test microbe spore suspension. Streaks were applied in a radial pattern, using a paper template generated by the SGE software to guide the application. Eight radii were inoculated per Petri plate. Each radius is considered as one replicated observation.
(§4) Inoculated spiral gradient plates were incubated for 48 hours in an incubator at 28° C. Visible growth of the test microbe developed along the radial streaks and ended where the concentration of the antimicrobial composition was sufficient to prevent growth. This growth endpoint value (expressed in mm as measured from center point of the Petri plate) was used to calculate MIC for the mixture, expressed as parts per million.
Utilizing the procedure described above in Example 1, Minimum Inhibitory Concentration (“MIC”) for each of the antimicrobial compositions was determined against a test microbe, which in this case was a spore suspension of the […] Alternaria alternata.

Candida albicans = test: Minimum Inhibitory Concentration (MIC) by spiral plater / spiral gradient endpoint against Candida albicans
Protocol: as §1, §2, §3, §4
Utilizing the procedure described above in Example, Minimum Inhibitory Concentration (“MIC”) for each of the antimicrobial compositions was determined against a test microbe, which in this case was a spore suspension of the yeast Candida albicans., as described above in Example 1. Several antimicrobial compositions containing calcium gluconate, BIT, or both in water were investigated, as shown below in Table 3
Utilizing the procedure described above in Example 1, Minimum Inhibitory Concentration (“MIC”) for each of the antimicrobial compositions was determined against a test microbe, which in this case was a spore suspension of the yeast Candida albicans. Several antimicrobial compositions containing calcium glycerate, BIT, or both in water were investigated, as shown below in Table 11.
Utilizing the procedure described above in Example 1, Minimum Inhibitory Concentration (“MIC”) for antimicrobial compositions was determined against a test microbe, which in this case was a spore suspension of the yeast Candida albicans. Several antimicrobial compositions containing calcium glycerate, BIT, or both in water were investigated, as shown below in Table 23.
Utilizing the procedure described above in Example 1, Minimum Inhibitory Concentration (“MIC”) for each of the antimicrobial compositions was determined against a test microbe, which in this case was a spore suspension of the fungus Candida Albicans.

Escherichia coli = test: Minimum Inhibitory Concentration (MIC) by spiral plater / spiral gradient endpoint against Escherichia coli
Protocol: as §1, §2
The spiral plater automatically applied 54.3 micro-liters of each antimicrobial composition of interest to the surface of 150 millimeter malt agar plates using an exponential application gradient. The concentration of the antimicrobial concentration was greatest near the center of the Petri plates and decreased toward the edges. […]
Inoculated spiral gradient plates were incubated for 48 hours in an incubator at 28° C. […] This growth endpoint value (expressed in mm as measured from center point of the Petri plate) was used to calculate MIC for the mixture, expressed as parts per million.
Utilizing the experimental procedure described above in Example 1, the MIC against Escherichia coli of several antibacterial compositions containing zinc gluconate, BIT, or both in water were determined.

O=c1[nH]sc2ccccc12 [BIT, 1,2-benzisothiazol-3(2H)-one] showed a QB (Alternaria alternata; MIC of BIT alone for Alternaria alternata, used for SI (zinc ethylhexanoate series)) of 13 ppm, a QB (Alternaria alternata; MIC of BIT alone for Alternaria alternata, used for SI (zinc glycerate series)) of 8.3 ppm and a QB (Alternaria alternata; quantity of BIT used alone that gives the desired effect, calcium ethylhexanoate-BIT series, Alternaria alternata) of 13 ppm. For the same compound, the QB (Alternaria alternata; quantity of BIT used alone that gives the desired effect, calcium gluconate-BIT series, Alternaria alternata) was 13 ppm, the QB (Alternaria alternata; quantity of BIT used alone that gives the desired effect, calcium glycerate-BIT series, Alternaria alternata) was 85 ppm and the “ppm of BIT alone providing the same inhibition” value (Alternaria alternata; zinc ethylhexanoate-BIT series, Alternaria alternata) was 13 ppm. For the same compound, the “ppm of BIT alone providing the same inhibition” value (Alternaria alternata; zinc glycerate-BIT series, Alternaria alternata) was 8.3 ppm, the QB (Candida albicans; MIC of BIT alone for Candida albicans (average of Trials 1, 2), used for SI (zinc ethylhexanoate series)) was 19 ppm and the QB (Candida albicans; MIC of BIT alone for Candida albicans, used for SI (zinc glycerate series)) was 13 ppm and 16 ppm. For the same compound, the QB (Candida albicans; quantity of BIT used alone that gives the desired effect, calcium gluconate-BIT series, Candida albicans) was 23 ppm, the QB (Candida albicans; quantity of BIT used alone that gives the desired effect, calcium glycerate-BIT series, Candida albicans) was 85 ppm and the “ppm of BIT alone providing the same inhibition” value (Candida albicans; zinc ethylhexanoate-BIT series, Candida albicans) was 19 ppm. For the same compound, the “ppm of BIT alone providing the same inhibition” value (Candida albicans; zinc glycerate-BIT series, Candida albicans) was 13 ppm, the QB (Escherichia coli; MIC of BIT alone for Escherichia coli (average of Trials 1, 2), used for SI) was 136 ppm and the “ppm of BIT alone providing the same inhibition” value (Escherichia coli; zinc gluconate-BIT series, Escherichia coli) was 136 ppm.
